Results published in ChEMBL document CHEMBL6096670, “Design, synthesis and biological evaluation of novel β-carbolines as antitumor agents via targeting autophagy in colorectal cancer” (Eur J Med Chem, 2025).

Tests used:
[1] = system: MCF7; assay: Antiproliferative activity against human MCF7 cells assessed as inhibition of cell growth incubated for 48 hrs by MTT assay; assay type: functional, cell-based; conditions: MCF7, 48 h
[2] = system: HepG2; assay: Antiproliferative activity against human HepG2 cells assessed as inhibition of cell growth incubated for 48 hrs by MTT assay; assay type: functional, cell-based; conditions: HepG2, 48 h
[3] = system: 786-0; assay: Antiproliferative activity against human 786-0 cells assessed as inhibition of cell growth incubated for 48 hrs by MTT assay; assay type: functional, cell-based; conditions: 786-0, 48 h
[4] = system: CWR22R; assay: Antiproliferative activity against human 22Rv1 cells assessed as inhibition of cell growth incubated for 48 hrs by MTT assay; assay type: functional, cell-based; conditions: 22Rv1, 48 h
[5] = system: A-375; assay: Antiproliferative activity against human A-375 cells assessed as inhibition of cell growth incubated for 48 hrs by MTT assay; assay type: functional, cell-based; conditions: A-375, 48 h
[6] = system: HT-29; assay: Antiproliferative activity against human HT-29 cells assessed as inhibition of cell growth incubated for 48 hrs by MTT assay; assay type: functional, cell-based; conditions: HT-29, 48 h
[7] = system: SK-OV-3; assay: Antiproliferative activity against human SK-OV-3 cells assessed as inhibition of cell growth incubated for 48 hrs by MTT assay; assay type: functional, cell-based; conditions: SK-OV-3, 48 h
[8] = system: BGC-823; assay: Antiproliferative activity against human BGC-823 cells assessed as inhibition of cell growth incubated for 48 hrs by MTT assay; assay type: functional, cell-based; conditions: BGC-823, 48 h
[9] = system: HCT-116; assay: Induction of apoptosis in human HCT-116 assessed as late apoptotic cells at 100 uM pretreated with Z-VAD-FMK for 30 mins followed by compound addition and measured after 24 hrs by Annexin V-FITC/PI double staining based flow cytometry (reference value: 7.43 %); assay type: functional
[10] = system: HCT-116; assay: Induction of apoptosis in human HCT-116 assessed as late apoptotic cells at 100 uM incubated for 24 hrs Annexin V FITC/PI double staining based flow cytometry (reference value: 8.02 %); assay type: functional
[11] = system: HCT-116; assay: Induction of apoptosis in human HCT-116 assessed as necrotic cells at 100 uM pretreated with Z-VAD-FMK for 30 mins followed by compound addition and measured after 24 hrs by Annexin V-FITC/PI double staining based flow cytometry (reference value: 0.84 %); assay type: functional
[12] = system: HCT-116; assay: Induction of apoptosis in human HCT-116 assessed as viable cells at 100 uM pretreated with Z-VAD-FMK for 30 mins followed by compound addition and measured after 24 hrs by Annexin V-FITC/PI double staining based flow cytometry (reference value: 90.8%); assay type: functional; conditions: read-out: Activity
[13] = system: HCT-116; assay: Induction of apoptosis in human HCT-116 assessed as viable cells at 100 uM incubated for 24 hrs Annexin V FITC/PI double staining based flow cytometry (Rvb =90.0%); assay type: functional; conditions: read-out: Activity
[14] = system: HCT-116; assay: Induction of apoptosis in human HCT-116 assessed as early apoptotic cells at 100 uM pretreated with Z-VAD-FMK for 30 mins followed by compound addition and measured after 24 hrs by Annexin V-FITC/PI double staining based flow cytometry (reference value: […]); assay type: functional
[15] = system: HCT-116; assay: Induction of apoptosis in human HCT-116 assessed as early apoptotic cells at 100 uM incubated for 24 hrs Annexin V FITC/PI double staining based flow cytometry (reference value: 1.07 %); assay type: functional
[16] = system: HCT-116; assay: Induction of apoptosis in human HCT-116 assessed as necrotic cells at 100 uM incubated for 24 hrs Annexin V FITC/PI double staining based flow cytometry (reference value: 0.94 %); assay type: functional

## CCN(CC)CCCNCc1cc2c3ccccc3n(Cc3ccc(F)cc3)c2c(CNCCCN(CC)CC)n1
[1]
  IC50: 6.92 µM
[2]
  IC50: 5.68 µM
[3]
  IC50: 5.42 µM
[4]
  IC50: 9.22 µM
[5]
  IC50: 4.82 µM
[6]
  IC50: 5.81 µM
[7]
  IC50: 7.85 µM
[8]
  IC50: 8.81 µM

## O=c1[nH]cc(F)c(=O)[nH]1 [FLUOROURACIL]
[9]
  Activity: 17.3%
[10]
  Activity: 15.2%
[11]
  Activity: 4.13%
[12]
  viability at 100 µM: 75.5%
[13]
  viability at 100 µM: 43.6%
[14]
  Activity: 3.01%
[15]
  Activity: 39.6%
[16]
  Activity: 1.62%

## CCN(CC)CCCNCc1cc2c3ccccc3n(C)c2c(CNCCCN(CC)CC)n1
[1]
  IC50: > 20 µM
[2]
  IC50: > 20 µM
[3]
  IC50: 14.2 µM
[4]
  IC50: 12.6 µM
[5]
  IC50: > 20 µM
[6]
  IC50: 8.62 µM
[7]
  IC50: > 20 µM
[8]
  IC50: 16.8 µM

## CCN(CC)CCCNCc1cc2c3ccccc3n(Cc3ccccc3)c2c(CNCCCN(CC)CC)n1
[1]
  IC50: 15.2 µM
[2]
  IC50: 14.3 µM
[3]
  IC50: 10.6 µM
[4]
  IC50: 11.2 µM
[5]
  IC50: 7.83 µM
[6]
  IC50: 5.54 µM
[7]
  IC50: 9.62 µM
[8]
  IC50: 7.24 µM

## CCCCn1c2ccccc2c2cc(CNCCCN(CC)CC)nc(CNCCCN(CC)CC)c21
[1]
  IC50: 10.5 µM
[2]
  IC50: 15.6 µM
[3]
  IC50: 9.32 µM
[4]
  IC50: 8.24 µM
[5]
  IC50: 15.8 µM
[6]
  IC50: 8.03 µM
[7]
  IC50: 15.8 µM
[8]
  IC50: 11.2 µM

## CCN(CC)CCCNCc1cc2c([nH]c3ccccc32)c(CNCCCN(CC)CC)n1
[1]
  IC50: > 20 µM
[2]
  IC50: > 20 µM
[3]
  IC50: 14.9 µM
[4]
  IC50: 16.1 µM
[5]
  IC50: > 20 µM
[6]
  IC50: 12.7 µM
[7]
  IC50: > 20 µM
[8]
  IC50: > 20 µM
